From ChEMBL document CHEMBL5291721, “A preclinical secondary pharmacology resource illuminates target-adverse drug reaction associations of marketed drugs” (Nat Commun, 2023)

What was measured:
Motilin receptor = Motilin receptor (Homo sapiens, UniProt O43193)
[1] = target: T1, Neuropeptide Y receptor type 1 (Homo sapiens, UniProt P25929); conditions: read-out: AC50
T1 sequence (P25929 whole entry): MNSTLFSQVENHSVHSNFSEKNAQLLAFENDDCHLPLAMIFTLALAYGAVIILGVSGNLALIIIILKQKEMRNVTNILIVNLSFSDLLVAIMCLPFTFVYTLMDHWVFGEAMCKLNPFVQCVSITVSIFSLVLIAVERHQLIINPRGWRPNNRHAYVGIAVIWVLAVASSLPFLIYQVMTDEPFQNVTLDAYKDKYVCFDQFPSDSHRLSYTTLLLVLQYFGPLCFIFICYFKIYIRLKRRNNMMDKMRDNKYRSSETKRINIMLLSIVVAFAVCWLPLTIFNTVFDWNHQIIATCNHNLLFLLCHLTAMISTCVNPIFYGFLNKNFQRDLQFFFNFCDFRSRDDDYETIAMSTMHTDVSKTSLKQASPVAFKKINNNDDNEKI

[2] = target: T2, Muscarinic acetylcholine receptor M2 (Homo sapiens, UniProt P08172); format: functional, cell-based
T2 sequence (P08172 whole entry): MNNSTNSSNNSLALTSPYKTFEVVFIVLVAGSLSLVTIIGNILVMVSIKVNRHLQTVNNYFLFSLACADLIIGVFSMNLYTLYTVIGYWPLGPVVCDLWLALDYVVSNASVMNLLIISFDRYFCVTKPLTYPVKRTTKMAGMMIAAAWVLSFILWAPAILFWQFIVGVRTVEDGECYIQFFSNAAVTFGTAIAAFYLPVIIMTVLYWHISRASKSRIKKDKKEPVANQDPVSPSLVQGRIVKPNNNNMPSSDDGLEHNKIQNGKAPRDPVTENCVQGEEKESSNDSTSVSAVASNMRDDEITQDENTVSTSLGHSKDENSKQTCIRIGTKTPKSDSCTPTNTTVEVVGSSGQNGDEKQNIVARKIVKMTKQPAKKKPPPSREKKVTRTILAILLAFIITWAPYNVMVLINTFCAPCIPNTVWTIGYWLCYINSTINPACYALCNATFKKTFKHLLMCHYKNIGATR

[3] = target: T3, Prostaglandin G/H synthase 1 (Rattus norvegicus, UniProt Q63921); format: functional
T3 sequence (Q63921 whole entry): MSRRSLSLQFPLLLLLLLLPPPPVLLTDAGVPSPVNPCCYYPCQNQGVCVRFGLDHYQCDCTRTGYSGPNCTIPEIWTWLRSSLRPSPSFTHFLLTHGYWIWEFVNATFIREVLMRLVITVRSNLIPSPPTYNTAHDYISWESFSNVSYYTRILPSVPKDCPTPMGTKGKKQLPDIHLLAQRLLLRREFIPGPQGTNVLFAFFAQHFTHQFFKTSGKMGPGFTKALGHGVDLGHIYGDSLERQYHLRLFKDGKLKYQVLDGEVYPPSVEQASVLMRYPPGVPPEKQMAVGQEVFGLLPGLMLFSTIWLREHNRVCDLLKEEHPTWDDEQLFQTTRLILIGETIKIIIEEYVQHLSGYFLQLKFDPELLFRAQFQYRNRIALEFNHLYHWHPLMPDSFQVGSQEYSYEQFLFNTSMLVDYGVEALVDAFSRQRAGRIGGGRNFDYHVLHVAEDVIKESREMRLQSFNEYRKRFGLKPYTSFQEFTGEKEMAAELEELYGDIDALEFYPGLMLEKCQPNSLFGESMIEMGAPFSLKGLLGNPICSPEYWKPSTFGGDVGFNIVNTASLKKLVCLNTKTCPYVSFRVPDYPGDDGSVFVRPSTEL

[4] = target: T4, Type-1 angiotensin II receptor (Homo sapiens, UniProt P30556)
T4 sequence (P30556 whole entry): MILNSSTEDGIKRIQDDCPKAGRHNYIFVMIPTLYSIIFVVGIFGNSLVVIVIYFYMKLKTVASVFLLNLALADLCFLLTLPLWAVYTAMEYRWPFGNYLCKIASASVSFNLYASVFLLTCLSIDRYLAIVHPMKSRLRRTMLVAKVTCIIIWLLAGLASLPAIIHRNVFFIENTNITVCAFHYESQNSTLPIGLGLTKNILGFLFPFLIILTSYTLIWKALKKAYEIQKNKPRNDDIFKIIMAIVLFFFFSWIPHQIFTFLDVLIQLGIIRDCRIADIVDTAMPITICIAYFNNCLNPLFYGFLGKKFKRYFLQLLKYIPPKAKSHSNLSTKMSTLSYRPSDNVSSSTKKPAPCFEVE

[5] = target: Glutamate receptor ionotropic, NMDA 1 (Rattus norvegicus, UniProt P35439)
[6] = target: Sodium-dependent noradrenaline transporter (Homo sapiens, UniProt P23975)
[7] = target: T5, Equilibrative nucleoside transporter 1 (Homo sapiens, UniProt Q99808)
T5 sequence (Q99808 whole entry): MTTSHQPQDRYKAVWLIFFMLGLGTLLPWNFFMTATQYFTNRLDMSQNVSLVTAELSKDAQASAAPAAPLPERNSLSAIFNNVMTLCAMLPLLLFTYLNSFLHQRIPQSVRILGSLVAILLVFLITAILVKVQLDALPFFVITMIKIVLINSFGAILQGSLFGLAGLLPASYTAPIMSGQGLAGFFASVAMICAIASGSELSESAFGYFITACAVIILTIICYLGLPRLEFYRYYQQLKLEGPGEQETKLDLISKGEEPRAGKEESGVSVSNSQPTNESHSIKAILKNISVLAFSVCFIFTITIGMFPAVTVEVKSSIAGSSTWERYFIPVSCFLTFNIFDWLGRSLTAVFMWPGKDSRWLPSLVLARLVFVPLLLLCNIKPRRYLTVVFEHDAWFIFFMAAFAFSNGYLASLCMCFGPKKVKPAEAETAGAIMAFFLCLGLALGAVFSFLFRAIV

[8] = target: Sodium-dependent dopamine transporter (Homo sapiens, UniProt Q01959)
[9] = target: Delta-type opioid receptor (Homo sapiens, UniProt P41143)
Thromboxane A2 receptor = target: T6, Thromboxane A2 receptor (Homo sapiens, UniProt P21731)
T6 sequence (P21731 whole entry): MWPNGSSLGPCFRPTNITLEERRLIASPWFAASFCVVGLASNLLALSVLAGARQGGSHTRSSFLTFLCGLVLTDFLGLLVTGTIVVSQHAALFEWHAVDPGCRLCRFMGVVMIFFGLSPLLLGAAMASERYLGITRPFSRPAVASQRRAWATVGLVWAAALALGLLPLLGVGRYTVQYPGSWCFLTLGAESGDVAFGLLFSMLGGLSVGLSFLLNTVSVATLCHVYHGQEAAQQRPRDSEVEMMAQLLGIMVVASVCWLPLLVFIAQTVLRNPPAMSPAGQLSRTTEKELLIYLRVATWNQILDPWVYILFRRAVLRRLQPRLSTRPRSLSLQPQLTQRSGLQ
Note: assay procedure not described here.

Delta-type opioid receptor, sequence (P41143 whole entry): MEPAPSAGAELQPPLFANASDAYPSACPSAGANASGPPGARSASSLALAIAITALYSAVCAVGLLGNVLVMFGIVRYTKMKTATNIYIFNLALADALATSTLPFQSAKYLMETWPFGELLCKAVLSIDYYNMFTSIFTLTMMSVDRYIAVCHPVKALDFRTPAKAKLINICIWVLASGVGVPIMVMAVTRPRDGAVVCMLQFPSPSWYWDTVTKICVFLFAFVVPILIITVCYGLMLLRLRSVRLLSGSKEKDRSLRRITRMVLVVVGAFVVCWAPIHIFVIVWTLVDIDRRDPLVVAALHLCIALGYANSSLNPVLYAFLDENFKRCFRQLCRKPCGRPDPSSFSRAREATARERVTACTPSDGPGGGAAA
Sodium-dependent dopamine transporter, sequence (Q01959 whole entry): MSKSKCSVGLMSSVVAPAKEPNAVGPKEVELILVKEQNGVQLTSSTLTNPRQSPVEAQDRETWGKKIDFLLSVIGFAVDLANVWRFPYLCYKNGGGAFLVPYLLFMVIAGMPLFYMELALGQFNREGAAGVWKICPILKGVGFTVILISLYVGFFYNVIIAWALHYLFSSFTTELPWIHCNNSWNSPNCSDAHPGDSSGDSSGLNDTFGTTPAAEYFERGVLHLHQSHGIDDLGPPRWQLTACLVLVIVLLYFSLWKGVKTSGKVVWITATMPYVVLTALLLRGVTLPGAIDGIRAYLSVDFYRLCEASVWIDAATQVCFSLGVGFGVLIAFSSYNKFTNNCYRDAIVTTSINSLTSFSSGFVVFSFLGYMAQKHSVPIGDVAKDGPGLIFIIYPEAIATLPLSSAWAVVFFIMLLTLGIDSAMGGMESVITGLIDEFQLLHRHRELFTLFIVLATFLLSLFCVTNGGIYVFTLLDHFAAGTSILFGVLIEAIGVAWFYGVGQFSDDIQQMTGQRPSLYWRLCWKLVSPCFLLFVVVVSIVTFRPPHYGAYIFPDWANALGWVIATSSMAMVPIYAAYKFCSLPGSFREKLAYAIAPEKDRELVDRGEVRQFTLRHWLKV
Motilin receptor, sequence (O43193 whole entry): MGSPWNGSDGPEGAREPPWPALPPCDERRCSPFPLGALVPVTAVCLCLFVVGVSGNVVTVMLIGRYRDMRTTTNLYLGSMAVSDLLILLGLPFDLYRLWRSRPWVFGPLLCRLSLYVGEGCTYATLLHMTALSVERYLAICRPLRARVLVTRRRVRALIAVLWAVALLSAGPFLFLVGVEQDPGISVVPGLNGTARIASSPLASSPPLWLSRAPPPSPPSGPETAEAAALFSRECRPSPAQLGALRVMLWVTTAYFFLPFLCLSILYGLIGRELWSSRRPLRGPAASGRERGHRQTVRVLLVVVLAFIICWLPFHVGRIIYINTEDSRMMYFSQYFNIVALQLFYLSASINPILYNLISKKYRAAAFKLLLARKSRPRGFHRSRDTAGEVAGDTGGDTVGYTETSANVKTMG
Sodium-dependent noradrenaline transporter, sequence (P23975 whole entry): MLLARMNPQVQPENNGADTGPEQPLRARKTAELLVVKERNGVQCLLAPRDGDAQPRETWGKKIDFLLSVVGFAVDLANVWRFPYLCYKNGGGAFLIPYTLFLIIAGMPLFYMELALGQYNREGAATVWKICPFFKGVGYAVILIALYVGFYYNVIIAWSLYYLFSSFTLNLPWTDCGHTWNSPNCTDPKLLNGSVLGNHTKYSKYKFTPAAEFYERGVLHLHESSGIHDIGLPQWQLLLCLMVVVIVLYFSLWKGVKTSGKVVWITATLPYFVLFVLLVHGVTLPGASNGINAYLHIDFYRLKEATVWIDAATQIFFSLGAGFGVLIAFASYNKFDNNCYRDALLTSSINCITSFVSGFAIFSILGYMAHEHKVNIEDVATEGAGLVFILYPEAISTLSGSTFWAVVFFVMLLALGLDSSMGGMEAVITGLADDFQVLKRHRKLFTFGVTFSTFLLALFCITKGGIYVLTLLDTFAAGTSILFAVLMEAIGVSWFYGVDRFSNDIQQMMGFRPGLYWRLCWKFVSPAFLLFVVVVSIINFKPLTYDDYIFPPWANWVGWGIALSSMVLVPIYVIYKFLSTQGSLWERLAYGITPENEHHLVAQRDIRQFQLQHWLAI

SMILES | AC50 (Motilin receptor) [µM] | AC50 [1] [µM] | AC50 [2] [µM] | AC50 [3] [µM] | AC50 [4] [µM] | AC50 [5] [µM] | AC50 [6] [µM] | AC50 [7] [µM] | AC50 [8] [µM] | AC50 [9] [µM] | AC50 (Thromboxane A2 receptor) [µM]
C[C@]12CC[C@@H]3c4ccc(O)cc4C[C@@H](CCCCCCCCC[S+]([O-])CCCC(F)(F)C(F)(F)F)[C@H]3[C@@H]1CC[C@@H]2O (stereo partly drawn) [FULVESTRANT] | > 30 | > 30 | > 30 | > 30 | > 30 | > 30 | > 30 | > 30 | > 30 | > 30 | –
CC12CC3CC(C)(C1)CC(N)(C3)C2 [MEMANTINE] | > 10 | > 30 | > 10 | > 30 | > 30 | – | > 30 | > 30 | > 30 | > 30 | > 30
CCC(C)C(CC)C(N)=O (stereo not drawn) [VALNOCTAMIDE] | > 30 | > 30 | > 30 | > 30 | > 30 | > 30 | > 30 | – | > 30 | > 30 | > 30
CN1CCN(C2=Nc3ccccc3Oc3ccc(Cl)cc32)CC1 [LOXAPINE] | > 10 | > 30 | – | > 30 | > 30 | > 10 | 1.53 | > 30 | > 10 | 8.51 | > 30
O=[N+]([O-])c1ccc(O)c2ncccc12 [NITROXOLINE] | – | – | > 30 | – | – | > 30 | – | – | – | 5.7 | –
CCCc1nc(C(C)(C)O)c(C(=O)O)n1Cc1ccc(-c2ccccc2-c2nnn[nH]2)cc1 [OLMESARTAN] | – | – | – | – | 0.0004 | – | – | – | – | – | –
Cc1cccc(N2CC(CO)OC2=O)c1 (stereo not drawn) [TOLOXATONE] | > 30 | > 30 | > 30 | > 30 | > 30 | > 30 | – | – | > 30 | – | > 30
Oc1ccc2c(c1)CC[C@H](c1ccccc1)[C@@H]2c1ccc(OCCN2CCCC2)cc1 [LASOFOXIFENE] | 2.9 | 25 | 15 | 5 | > 30 | > 30 | 2 | > 30 | 0.117 | 7.2 | –
CCC[C@H](NC(=O)[C@@H]1[C@H]2CCC[C@H]2CN1C(=O)[C@@H](NC(=O)[C@@H](NC(=O)c1cnccn1)C1CCCCC1)C(C)(C)C)C(=O)C(=O)NC1CC1 | > 10 | > 30 | – | > 30 | > 30 | > 10 | > 10 | > 30 | > 10 | > 30 | > 30
CC[C@@H]([C@H](C)O)n1ncn(-c2ccc(N3CCN(c4ccc(OC[C@@H]5CO[C@@](Cn6cncn6)(c6ccc(F)cc6F)C5)cc4)CC3)cc2)c1=O [POSACONAZOLE] | – | – | – | > 30 | – | – | > 30 | – | > 30 | > 30 | –
CNCc1ccc(-c2[nH]c3cc(F)cc4c3c2CCNC4=O)cc1 [RUCAPARIB] | > 30 | > 30 | > 10 | > 30 | > 30 | – | 20.7 | > 30 | > 30 | – | > 30
Cc1cnc(C(=O)NCCc2ccc(S(=O)(=O)NC(=O)NC3CCCCC3)cc2)cn1 [GLIPIZIDE] | > 10 | > 30 | – | – | > 30 | > 10 | – | > 30 | – | > 10 | > 30
OC1(c2ccc(Cl)cc2)c2ccccc2C2=NCCN21 (stereo not drawn) [MAZINDOL] | > 30 | > 30 | > 30 | > 30 | > 30 | > 30 | 0.027 | > 30 | – | > 30 | > 30
CC(=O)N[C@@H](CS)C(=O)O [ACETYLCYSTEINE] | > 30 | > 30 | > 30 | – | > 30 | > 30 | > 30 | > 30 | > 30 | > 30 | > 30
Cc1cc(C(C)(C)C)cc(C)c1CC1=NCCN1 [XYLOMETAZOLINE] | > 30 | > 30 | > 30 | > 30 | > 30 | > 30 | > 30 | – | > 30 | > 30 | > 30
C/N=C(\NC)NCc1ccccc1 [BETHANIDINE] | > 30 | > 30 | > 30 | > 30 | > 30 | > 30 | > 30 | > 30 | > 30 | > 30 | –
O=C(O)c1cn(C2CC2)c2cc(N3CCNCC3)c(F)cc2c1=O [CIPROFLOXACIN] | > 10 | > 30 | – | – | > 30 | – | – | > 30 | – | – | > 30
CN(C)CCCNc1c2ccccc2nc2cccc([N+](=O)[O-])c12 [NITRACRINE] | > 30 | > 30 | > 30 | > 30 | > 30 | > 30 | > 30 | – | > 30 | – | > 30
CCC(C)C1(CC)C(=O)NC(=O)NC1=O (stereo not drawn) [BUTABARBITAL] | > 30 | – | > 30 | > 30 | > 30 | – | > 30 | > 30 | > 30 | – | –
